In article PMC9734143, “An efficient human stem cells derived cardiotoxicity testing platform for testing oncotherapeutic analogues of quercetin and cinnamic acid” (Scientific Reports, 2022):
Where two headings read alike, the source gives them in different places.

Tests used:
[1] = system: Vero, a non-cancerous cell line; parameters: method as in PMID 25824412, PMID 30687400; conditions: read-out: IC50 in Vero cells; cited from earlier work
colorectal cancer = system: colorectal cancer; parameters: method as in PMID 25824412, PMID 30687400; conditions: previously reported studies; cited from earlier work
[2] = system: WJMSC-derived cardiomyocytes (WJCM); experiment: LDH release assay in WJCM; type: cell-based, human; conditions: 24 h; analogues at Vero IC50 concentration
Method: (§1) The experiment was performed as per the manufacturer’s protocol. Absorbance was taken at 490 nm and 680 nm (background signal) using multimode plate reader. LDH activity was calculated by subtracting absorbance taken at 680 nm from 490 nm.

[3] = system: cardiomyocytes (WJCM and H9C2 cells); experiment: Cardiotoxicity across parameters as summarised in the discussion (WJCM and H9C2 cells); type: cell-based, human and rat; conditions: for overall cardiotoxicity across the parameters analyzed: analogues at Vero IC50 concentration, 24 h
From the text: We investigated the effects of 3-hydroxyflavone (QMJ-2, QMJ-5, and QMJ-6) and cinnamyl sulfonamide-hydroxamate (NMJ-1, NMJ-2, NMJ-3) in WJCM and H9C2 cells using the concentrations reported for non-cancerous Vero cells. The prerequisite for any synthesized drug molecules is that they should be nontoxic to cardiac cells.

H9C2 cells [4] = experiment: MTT cell viability assay in H9C2 cells; type: cell-based, rat; conditions: 24 h; analogues at Vero IC50 concentration; Dox 1 µM
Method: (§2) Similarly, the toxicity of these compounds in terms of the viability of cells was estimated by using the MTT assay and cell counting kit-8 (CCK-8) assay. For MTT assay, after 24 h of treatments, MTT (5 mg/ml of PBS; HiMedia, India) was added, and cells were incubated for 2 h at 37 °C. The formazan crystals that were formed after the incubation were dissolved using dimethyl sulfoxide (DMSO). For the CCK-8 assay, 10 μL of CCK-8 solution (Boster Biological Technology, Pleasanton, CA, USA) was added to each well and incubated for 2 h at 37 °C. The absorbance for MTT and CCK-8 assay was measured at 570 nm and 450 nm respectively using the EnSight™ Multimode plate reader (Perkin Elmer, MA, USA)[49],[50].

H9C2 cells [5] = experiment: LDH release assay in H9C2 cells; type: cell-based, rat; conditions: 24 h; analogues at Vero IC50 concentration
Method: as §1

[6] = system: cardiac markers (NKX2.5, GATA4, Troponin I, Troponin T, MHCα) in WJCM; experiment: qRT-PCR gene expression of cardiac-specific markers in WJCM
Method: Differentiation of WJMSCs was done using a proprietary combination of DNMT and HDAC inhibitors in KO-DMEM/F-12 containing 10% FBS for 48 h. Induction media was replaced with culture media i.e. KO-DMEM/F-12 with 1X GlutaMAX and, 10% FBS after 48 h for 7 days[23].
WJMSC-derived cardiomyocytes (WJCM) and H9C2 were treated with NMJ and QMJ analogues for 24 h. […] To illustrate the toxicity specific to cardiac cells and not a general cytotoxicity, WJMSCs were treated with positive cardiotoxic drugs.
Total ribonucleic acid (RNA) was isolated using RNAiso Plus (TaKaRa, Shiga, Japan) followed by cDNA conversion using PrimeScript™ 1st strand cDNA synthesis kit (TaKaRa, Shiga, Japan). Quantitative reverse transcriptase-polymerase chain reaction (qRT-PCR) was performed by using TB Green™ Premix Ex Taq™ II (Tli RNase H Plus; TaKaRa, Shiga, Japan) for cardiac markers in a QuantStudio™ 5 real-time PCR Systems (Applied Biosystems, USA). All the primers were purchased from Sigma Aldrich, Bangalore, India (Table 1). The relative gene expression was calculated using 2^-∆∆CT and GAPDH, a housekeeping gene was used as endogenous control[52],[53].

WJMSCs [7] = experiment: LDH release assay in undifferentiated WJMSCs; type: cell-based, human; conditions: 24 h; Dox 1 µM, 5FU 1 µM, Cis 5 µM; undifferentiated cells
Method: Mesenchymal stem cells from Wharton's jelly (WJMSCs) were isolated from the Wharton's jelly of the human umbilical cord via enzymatic digestion as described previously with slight modifications. Experiments were performed after obtaining clearance from Institutional Ethical Committee ([…] Hospital, Bangalore, India. Informed consent was obtained from the donor and all the experiments were performed in accordance with relevant guidelines and regulations. Rat cardiomyoblast cell line, H9C2 was obtained from National Centre for Cell Science (NCCS), Pune, India. WJMSCs were maintained in KnockoutTM Dulbecco's Modified Eagle Medium/Nutrient Mixture F-12 (KO-DMEM/F-12; Gibco, MA, USA) with 10% Fetal bovine serum (FBS, Gibco, MA, USA), 1X GlutaMAX (Gibco, MA, USA), and 1X Antibiotic Antimycotic Solution (Gibco, MA, USA). H9C2 cells were cultured in Dulbecco's Modified Eagle Medium-High Glucose (DMEM-HG; Gibco, MA, USA) supplemented with 10% FBS and 1X Antibiotic-Antimycotic solution at 37 °C in 5% CO2 incubator. […] The experiment was performed as per the manufacturer's protocol. Absorbance was taken at 490 nm and 680 nm (background signal) using multimode plate reader. LDH activity was calculated by subtracting absorbance taken at 680 nm from 490 nm.

WJMSCs [8] = experiment: CCK-8 assay in undifferentiated WJMSCs; type: cell-based, human; conditions: 24 h; Dox 1 µM, 5FU 1 µM, Cis 5 µM; undifferentiated cells
Method: Mesenchymal stem cells from Wharton's jelly (WJMSCs) were isolated from the Wharton's jelly of the human umbilical cord via enzymatic digestion as described previously with slight modifications. Experiments were performed after obtaining clearance from Institutional Ethical Committee ([…] Hospital, Bangalore, India. Informed consent was obtained from the donor and all the experiments were performed in accordance with relevant guidelines and regulations. Rat cardiomyoblast cell line, H9C2 was obtained from National Centre for Cell Science (NCCS), Pune, India. WJMSCs were maintained in KnockoutTM Dulbecco's Modified Eagle Medium/Nutrient Mixture F-12 (KO-DMEM/F-12; Gibco, MA, USA) with 10% Fetal bovine serum (FBS, Gibco, MA, USA), 1X GlutaMAX (Gibco, MA, USA), and 1X Antibiotic Antimycotic Solution (Gibco, MA, USA). H9C2 cells were cultured in Dulbecco's Modified Eagle Medium-High Glucose (DMEM-HG; Gibco, MA, USA) supplemented with 10% FBS and 1X Antibiotic-Antimycotic solution at 37 °C in 5% CO2 incubator. […] Similarly, the toxicity of these compounds in terms of the viability of cells was estimated by using the MTT assay and cell counting kit-8 (CCK-8) assay. For MTT assay, after 24 h of treatments, MTT (5 mg/ml of PBS; HiMedia, India) was added, and cells were incubated for 2 h at 37 °C. The formazan crystals that were formed after the incubation were dissolved using dimethyl sulfoxide (DMSO). For the CCK-8 assay, 10 μL of CCK-8 solution (Boster Biological Technology, Pleasanton, CA, USA) was added to each well and incubated for 2 h at 37 °C. The absorbance for MTT and CCK-8 assay was measured at 570 nm and 450 nm respectively using the EnSightTM Multimode plate reader (Perkin Elmer, MA, USA)[49],[50].

WJMSCs [9] = experiment: MTT cell viability assay in undifferentiated WJMSCs; type: cell-based, human; conditions: 24 h; Dox 1 µM, 5FU 1 µM, Cis 5 µM; undifferentiated cells
Method: as §2, with “°C.” for “°C. The absorbance for MTT and CCK-8 assay was measured at 570 nm and 450 nm respectively using the EnSight™ Multimode plate reader (Perkin Elmer, MA, USA)[49],[50].”

[10] = system: WJMSC-derived cardiomyocytes (WJCM); experiment: MTT and CCK-8 cell viability assays in WJCM; type: cell-based, human; conditions: 24 h; analogues at Vero IC50 concentration; Dox 1 µM
Method: as §2

[11] = discussion summary, cell model not specified
[12] = qRT-PCR, analogues at Vero IC50 concentration
[13] = qRT-PCR, analogues at Vero IC50 concentration, Dox, 5FU, Cis as positive cardiotoxic drugs

| Structure (SMILES) | IC50 [1] | concentration found effective against cancer (colorectal cancer) | LDH release in WJCM [2] | overall cardiotoxicity across the parameters analyzed [3] | ROS level in treated cardiomyocytes [3, 11] | active mitochondria status in treated cardiomyocytes [3, 11] | cytotoxic effect against cardiomyocytes by MTT, CCK-8 and LDH assay [3, 11] | intracellular calcium level in treated cardiomyocytes [3, 11] | decrease in viability of H9C2 cells (MTT) (H9C2 cells [4]) | LDH release in H9C2 cells (H9C2 cells [5]) | GATA4 gene expression in WJCM [6, 12] | MHCα gene expression in WJCM [6, 12] | Troponin I gene expression in WJCM [6, 12] | cardiac marker gene expression in WJCM (all markers together) [6, 13] | LDH release in WJMSCs (WJMSCs [7]) | CCK-8 in WJMSCs (WJMSCs [8]) | cardiac marker gene expression in WJCM (all markers together) [6] | MTT cell viability in WJMSCs (WJMSCs [9]) | also measured |
| --- | --- | --- | --- | --- | --- | --- | --- | --- | --- | --- | --- | --- | --- | --- | --- | --- | --- | --- | --- |
| O=C(/C=C/c1ccc(S(=O)(=O)NCc2cccs2)cc1)NO [NMJ-1] | 9.7 µM | 5.07 µM | increase in LDH | cardiotoxic | increased ROS levels | loss of mitochondria | induced toxicity | increased the level | 10–20% | increase in LDH | decreased the expression | decreased the expression | decreased the expression | drastic reduction |  |  |  |  |  |
| N.N.[Cl][Pt][Cl] [Cis, cisplatin] |  |  |  |  |  |  |  |  |  |  |  |  |  |  | no significant difference | no significant difference | reduced all the cardiac markers expression drastically |  |  |
| O=c1[nH]cc(F)c(=O)[nH]1 [5FU, 5-fluorouracil] |  |  |  |  |  |  |  |  |  |  |  |  |  | reduced all the cardiac markers expression drastically | no significant difference | no significant difference |  | no significant difference |  |
| COc1cccc2c1C(=O)c1c(O)c3c(c(O)c1C2=O)C[C@@](O)(C(=O)CO)C[C@@H]3O[C@H]1C[C@H](N)[C@H](O)[C@H](C)O1 [Dox, doxorubicin, reference compound] |  |  |  |  | increased ROS level | affected cardiomyocyte mitochondrial activity |  | alternation in calcium | ~25% |  |  |  |  | reduced all the cardiac markers expression drastically | no significant difference | no significant difference |  | no significant difference | toxicity / cell viability in WJCM (MTT, CCK-8), result in words [10]: reduced cell viability drastically; NO production / NO levels [3, 11]: reduced NO production |
| Cc1ccc(-c2oc3cc(C)ccc3c(=O)c2O)cc1 [QMJ-5, 3-Hydroxy-7-methyl-2-(4-methylphenyl)-4H-1-benzopyran-4-one] | 55.6 µM | 27.4 µM | increase in LDH | cardiotoxic | increased ROS levels | loss of mitochondria | induced toxicity | increased the level | 10–20% | increase in LDH | decreased the expression | decreased the expression | decreased the expression | drastic reduction |  |  |  |  |  |
| Cc1ccc(-c2oc3ccccc3c(=O)c2O)cc1 [QMJ-2, 3-hydroxy-2-(4-methylphenyl)-4H-1-benzopyran-4-one] | 140 µM | 68 µM | increase in LDH | cardiotoxic | increased ROS levels | loss of mitochondria | induced toxicity | increased the level | 10–20% | increase in LDH | decreased the expression | decreased the expression | decreased the expression |  |  |  | drastic reduction |  | Troponin T gene expression in WJCM, result in words [6, 12]: milder increase |
